Assay results reported in US20230081426A1, “COMPOUNDS AND METHODS FOR KRAS MODULATION AND INDICATIONS THEREFOR” (Plexxikon Inc., priority 2020, published 2023).

Tests used:
[1] = target: T1, G12C-mutant human KRAS (amino acid residues 1-188) (Homo sapiens, UniProt P01116, G12C); assay: KRAS Binding Disruption Assay (AlphaScreen; biotinylated KRpep-2d analogue or RAF1-RBD), G12C; details: geometric mean, read-out: KRAS GMean IC50 (uM) MUTATION: G12C
T1 construct: G12D or G12C-mutant human KRAS (amino acid residues 1-188) with FLAG tag; made in house; host or cells: E. coli
In short: (§1)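 Mutant KRAS (5-20 nM) incubated 1 h at 25° C with test compound and 5-20 nM biotinylated KRpep-2d analogue or RAF1-RBD in 20 mM HEPES pH 7.5, 100 mM NaCl, 5 mM MgCl2, 0.01% Tween-20, 0.01% BSA.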

[2] = target: T2, G12D-mutant human KRAS (amino acid residues 1-188) (Homo sapiens, UniProt P01116, G12D); assay: KRAS Binding Disruption Assay (AlphaScreen; biotinylated KRpep-2d analogue or RAF1-RBD), G12D; details: KRAS G12D; geometric mean; read-out: KRAS GMean IC50 (uM) MUTATION: G12D
T2 construct: G12D or G12C-mutant human KRAS (amino acid residues 1-188) with FLAG tag; made in house; host or cells: E. coli
In short: as §1

[3] = target: T3, G12V-mutant human KRAS (amino acid residues 1-188) (Homo sapiens, UniProt P01116, G12V); assay: KRAS Binding Competition Assay (AlphaScreen; biotinylated KRpep-2d analogue), G12V; details: geometric mean, read-out: KRAS GMean IC50 (uM) MUTATION: G12V
T3 construct: G12V-mutant human KRAS (amino acid residues 1-188) with FLAG tag was purified from E. coli; made in house; host or cells: E. coli

| IC50 [1] [µM] | IC50 [2] [µM] | IC50 [3] [µM] | Structure (SMILES) |
| --- | --- | --- | --- |
| 10 to 100 | 0.0001 to 10 | 10 to 100 | CN1[C@@H]2CC[C@H]1CN(c1nc(OCC34CCCN3CCC4)nc3cc(-c4cc(O)cc5ccccc45)ccc13)C2 [P-0017, 4-(4-((1R,5S)-8-methyl-3,8-diazabicyclo[3.2.1]octan-3-yl)-2-((tetrahydro-1H-pyrrolizin-7a(5H)-yl)methoxy)quinazolin-7-yl)naphthalen-2-ol] |
| 0.0001 to 10 | 0.0001 to 10 | 0.0001 to 10 | O=C(CC1CCNC1)N1[C@@H]2CC[C@H]1CN(c1nc(OCC34CCCN3CCC4)nc3cc(-c4cc(O)cc5ccccc45)ccc13)C2 (stereo partly drawn) [P-0110, 1-((1R,5S)-3-(7-(3-hydroxynaphthalen-1-yl)-2-((tetrahydro-1H-pyrrolizin-7a(5H)-yl)methoxy)quinazolin-4-yl)-3,8-diazabicyclo[3.2.1]octan-8-yl)-2-(pyrrolidin-3-yl)ethan-1-one] |
| 0.0001 to 10 | 0.0001 to 10 | 0.0001 to 10 | CCC(=O)N1[C@@H]2CC[C@H]1CN(c1nc(OCC34CCCN3CCC4)nc3cc(-c4cc(O)cc5ccccc45)ccc13)C2 [P-0063, 1-((1R,5S)-3-(7-(3-hydroxynaphthalen-1-yl)-2-((tetrahydro-1H-pyrrolizin-7a(5H)-yl)methoxy)quinazolin-4-yl)-3,8-diazabicyclo[3.2.1]octan-8-yl)propan-1-one] |

Further lines, the compound ahead of its results:

| Structure (SMILES) | IC50 [1] [µM] | IC50 [2] [µM] | IC50 [3] [µM] |
| --- | --- | --- | --- |
| CN1CCC[C@H]1COc1nc(N2C[C@H]3CC[C@@H](C2)N3C(=O)Cc2c[nH]cn2)c2ccc(-c3cc(O)cc4ccccc34)cc2n1 [P-0117, 1-((1R,5S)-3-(7-(3-hydroxynaphthalen-1-yl)-2-(((S)-1-methylpyrrolidin-2-yl)methoxy)quinazolin-4-yl)-3,8-diazabicyclo[3.2.1]octan-8-yl)-2-(1H-imidazol-4-yl)ethan-1-one] | 0.0001 to 10 | 0.0001 to 10 | 0.0001 to 10 |
| O=C(N[C@H]1CC[C@@H](O)C1)N1[C@@H]2CC[C@H]1CN(c1nc(OCC34CCCN3CCC4)nc3cc(-c4cc(O)cc5ccccc45)ccc13)C2 [P-0130, (1R,5S)-N-((1S,3R)-3-hydroxycyclopentyl)-3-(7-(3-hydroxynaphthalen-1-yl)-2-((tetrahydro-1H-pyrrolizin-7a(5H)-yl)methoxy)quinazolin-4-yl)-3,8-diazabicyclo[3.2.1]octane-8-carboxamide] | 0.0001 to 10 | 0.0001 to 10 | 0.0001 to 10 |
| N#CCC(=O)N1[C@@H]2CC[C@H]1CN(c1nc(OC[C@@]34CCCN3C[C@H](F)C4)nc3c(F)c(-c4cc(O)cc5cccc(Cl)c45)ccc13)C2 [P-0504, 3-((1R,5S)-3-(7-(8-chloro-3-hydroxynaphthalen-1-yl)-8-fluoro-2-(((2R,7aS)-2-fluorotetrahydro-1H-pyrrolizin-7a(5H)-yl)methoxy)quinazolin-4-yl)-3,8-diazabicyclo[3.2.1]octan-8-yl)-3-oxopropanenitrile] | 0.0001 to 10 | 0.0001 to 10 | 0.0001 to 10 |
| O=C1NC(=O)C(CCC(=O)N2[C@@H]3CC[C@H]2CN(c2nc(OCC45CCCN4CCC5)nc4c(F)c(-c5cc(O)cc6ccccc56)ccc24)C3)N1 (stereo partly drawn) [P-0375, 5-(3-((1R,5S)-3-(8-fluoro-7-(3-hydroxynaphthalen-1-yl)-2-((tetrahydro-1H-pyrrolizin-7a(5H)-yl)methoxy)quinazolin-4-yl)-3,8-diazabicyclo[3.2.1]octan-8-yl)-3-oxopropyl)imidazolidine-2,4-dione] | 0.0001 to 10 | 0.0001 to 10 | 0.0001 to 10 |
| O=C(NC1CCOC1)N1[C@@H]2CC[C@H]1CN(c1nc(OCC34CCCN3CCC4)nc3cc(-c4cc(O)cc5ccccc45)ccc13)C2 (stereo partly drawn) [P-0129, (1R,5S)-3-(7-(3-hydroxynaphthalen-1-yl)-2-((tetrahydro-1H-pyrrolizin-7a(5H)-yl)methoxy)quinazolin-4-yl)-N-(tetrahydrofuran-3-yl)-3,8-diazabicyclo[3.2.1]octane-8-carboxamide] | 0.0001 to 10 | 0.0001 to 10 | 0.0001 to 10 |
